target: T1, His-tagged recombinant human TrkA (Homo sapiens, UniProt P04629); assay: TrkA Kinase Binding Assay (LanthaScreen Eu); conditions: averaged IC50; TR-FRET binding, 60 min, 22° C.; read-out: TrkA Enzyme IC50
T1 construct: 6HIS tagged cytoplasmic domain from Invitrogen, Catalog No. PV3144; purchased Invitrogen PV3144
Description: TrkA binding activity was determined in a TrkA LanthaScreen™ Eu Kinase Binding Assay. 5 nM His-tagged recombinant human TrkA (6HIS tagged cytoplasmic domain from Invitrogen, Catalog No. PV3144) was incubated with 4 nM Alexa-Fluor® Tracer 236 (Invitrogen Cat. No. PV5592), 2 nM biotinylated anti-His (Invitrogen Cat. No. PV6090), and 2 nM europium-labeled Streptavidin (Invitrogen Cat. No. PV5899), in buffer (25 mM MOPS, pH 7.5, 5 mM MgCl2, 0.005% Triton X-100). Three fold serial dilutions of compounds of the invention in DMSO were added to a final percentage of 2% DMSO. After 60-minute incubation at 22° C., the reaction was measured using the EnVision mutlimode plate reader (PerkinElmer) via TR-FRET dual wavelength detection at […]. The percent of control was calculated using a ratiometric emission factor. The IC50 values were determined by fitting a four parameter model to the percent of control data.
Table A provides averaged IC50 values for compounds of the invention when tested in the assay of Example A, where A represents an averaged IC50 value <100 nM; B represents an averaged IC50 value from 100 to 1,000 nM; and C represents an average 1050 value above 1000 nM.

T1 sequence (P04629 440-796 limits assumed): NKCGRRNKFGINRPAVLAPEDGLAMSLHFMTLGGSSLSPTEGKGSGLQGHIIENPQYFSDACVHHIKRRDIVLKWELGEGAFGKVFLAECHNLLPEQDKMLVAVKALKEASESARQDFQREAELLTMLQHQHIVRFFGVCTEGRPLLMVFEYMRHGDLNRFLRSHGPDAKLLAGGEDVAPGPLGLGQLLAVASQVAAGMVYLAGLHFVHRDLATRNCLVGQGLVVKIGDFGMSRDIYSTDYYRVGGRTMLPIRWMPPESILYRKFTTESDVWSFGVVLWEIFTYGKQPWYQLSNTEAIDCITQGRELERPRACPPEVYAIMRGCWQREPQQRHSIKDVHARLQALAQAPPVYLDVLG

`COCc1ccc(C2CC2)c(CNC(=O)Nc2c(C)c(C)nn2-c2ccccc2)c1` [Example 5, 1-(2-cyclopropyl-5-(methoxymethyl)benzyl)-3-(3,4-dimethyl-1-phenyl-1H-pyrazol-5-yl)urea] and `COCc1ccc(C2CC2)c(CNC(=O)Nc2c(C)c(-c3cnc(C)nc3)nn2-c2ccccc2)c1` [Example 1, 1-(2-cyclopropyl-5-(methoxymethyl)benzyl)-3-(4-methyl-3-(2-methylpyrimidin-5-yl)-1-phenyl-1H-pyrazol-5-yl)urea] cannot be ordered by IC50: < 0.1 µM for the first, < 0.1 µM for the second.

`COCc1ccc(OC(F)F)c(CNC(=O)Nc2c(C)c(-c3cncc(OC)c3)nn2-c2ccccc2)c1` [Example 52, 1-(2-(difluoromethoxy)-5-(methoxymethyl)benzyl)-3-(3-(5-methoxypyridin-3-yl)-4-methyl-1-phenyl-1H-pyrazol-5-yl)urea] and `COCc1ccc(OC(F)(F)F)c(CNC(=O)Nc2c(C)c(-c3cnc(OC)nc3)nn2-c2ccccc2)c1` [Example 59, 1-(5-(methoxymethyl)-2-(trifluoromethoxy)benzyl)-3-(3-(2-methoxypyrimidin-5-yl)-4-methyl-1-phenyl-1H-pyrazol-5-yl)urea] cannot be ordered by IC50: < 0.1 µM for the first, < 0.1 µM for the second.

`COCc1ccc(OC(F)(F)F)c(CNC(=O)Nc2c(C)c(OCC3(F)CCN(C)C3)nn2-c2ccccc2)c1` (stereo not drawn) [Example 76, 1-(3-((3-fluoro-1-methylpyrrolidin-3-yl)methoxy)-4-methyl-1-phenyl-1H-pyrazol-5-yl)-3-(5-(methoxymethyl)-2-(trifluoromethoxy)benzyl)urea] and `COCc1ccc(OC(F)(F)F)c(CNC(=O)Nc2c(C)c(OC[C@H]3COCCN3C)nn2-c2ccccc2)c1` [Example 113] cannot be ordered by IC50: < 0.1 µM for the first, < 0.1 µM for the second.

`O=C(Nc1c2c(nn1-c1ccccc1)CCC2)NC(CCC(F)(F)F)Cc1ccccc1` (stereo not drawn) [Example 49, 1-(2-phenyl-2,4,5,6-tetrahydrocyclopenta[c]pyrazol-3-yl)-3-(5,5,5-trifluoro-1-phenylpentan-2-yl)urea] and `CNC(=O)c1nn(-c2ccccc2)c(NC(=O)NCc2cc(COC)ccc2OCC(F)(F)F)c1C` [Example 68, 5-(3-(5-(methoxymethyl)-2-(2,2,2-trifluoroethoxy)benzyl)ureido)-N,4-dimethyl-1-phenyl-1H-pyrazole-3-carboxamide] fall in the same range of IC50: 0.1 to 1 µM for the first, 0.1 to 1 µM for the second.

First: COCc1ccc(C2(F)COC2)c(CNC(=O)Nc2c(C)c(-c3ccc(C)nc3)nn2-c2ccccc2)c1 [Example 32, 1-(2-(3-fluorooxetan-3-yl)-5-(methoxymethyl)benzyl)-3-(4-methyl-3-(6-methylpyridin-3-yl)-1-phenyl-1H-pyrazol-5-yl)urea]
Second: COCc1ccc(C2(F)COC2)c(CNC(=O)Nc2c(C)c(-c3cnn(C)c3)nn2-c2ccccc2)c1 [Example 31, 1-(1′,4-dimethyl-1-phenyl-1H,1′H-[3,4′-bipyrazol]-5-yl)-3-(2-(3-fluorooxetan-3-yl)-5-(methoxymethyl)benzyl)urea]
The IC50 of the first is higher: 0.1 to 1 µM for the first, < 0.1 µM for the second.

`COCc1ccc(C(C)(C)C)c(CNC(=O)Nc2c(C)c(-c3cnn(C)c3)nn2-c2ccccc2)c1` [Example 35, 1-(2-(tert-butyl)-5-(methoxymethyl)benzyl)-3-(1′,4-dimethyl-1-phenyl-1H,1′H-[3,4′-bipyrazol]-5-yl)urea] and `CSCc1ccc(C2CCC2)c(CNC(=O)Nc2c(C)c(-c3cnn(C)c3)nn2-c2ccccc2)c1` [Example 123, 1-(2-cyclobutyl-5-((methylthio)methyl)benzyl)-3-(1′,4-dimethyl-1-phenyl-1H,1′H-[3,4′-bipyrazol]-5-yl)urea] cannot be ordered by IC50: < 0.1 µM for the first, < 0.1 µM for the second.

`COCc1ccc(OC(F)(F)F)c(CNC(=O)Nc2c(C)c(OC3CC4(C3)CN(C)C4)nn2-c2ccccc2)c1` [Example 85, 1-(5-(methoxymethyl)-2-(trifluoromethoxy)benzyl)-3-(4-methyl-3-((2-methyl-2-azaspiro[3.3]heptan-6-yl)oxy)-1-phenyl-1H-pyrazol-5-yl)urea] and `COCc1ccc(OC(F)(F)F)c(CNC(=O)Nc2c(C)c(OC[C@H]3CCN3)nn2-c2ccccc2)c1` [Example 91, (R)-1-(3-(azetidin-2-ylmethoxy)-4-methyl-1-phenyl-1H-pyrazol-5-yl)-3-(5-(methoxymethyl)-2-(trifluoromethoxy)benzyl)urea] cannot be ordered by IC50: < 0.1 µM for the first, < 0.1 µM for the second.

Compared with `COCc1ccc(C2(OC)CCC2)c(CNC(=O)Nc2c(C)c(-c3ccc(C)nc3)nn2-c2ccccc2)c1` [Example 24, 1-(2-(1-methoxycyclobutyl)-5-(methoxymethyl)benzyl)-3-(4-methyl-3-(6-methylpyridin-3-yl)-1-phenyl-1H-pyrazol-5-yl)urea], `COCc1ccc(C2CCC2)c(CNC(=O)Nc2c(C)c(-c3ccc(=O)n(C)c3)nn2-c2ccccc2)c1` [Example 9, 1-(2-cyclobutyl-5-(methoxymethyl)benzyl)-3-(4-methyl-3-(1-methyl-6-oxo-1,6-dihydropyridin-3-yl)-1-phenyl-1H-pyrazol-5-yl)urea] is lower in IC50: 0.1 to 1 µM for the first, < 0.1 µM for the second.

Compared with `COCc1cccc(C(NC(=O)Nc2c(C)c(-c3cnn(C)c3)nn2-c2ccccc2)C2CC2)c1` (stereo not drawn) [Example 28, 1-(cyclopropyl(3-(methoxymethyl)phenyl)methyl)-3-(1′,4-dimethyl-1-phenyl-1H,1′H-[3,4′-bipyrazol]-5-yl)urea], `COCc1ccc(OC(F)(F)F)c(CNC(=O)Nc2c(C)c(-c3cc(C)c(=O)n(C)c3)nn2-c2ccccc2)c1` [Example 74, 1-(3-(1,5-dimethyl-6-oxo-1,6-dihydropyridin-3-yl)-4-methyl-1-phenyl-1H-pyrazol-5-yl)-3-(5-(methoxymethyl)-2-(trifluoromethoxy)benzyl)urea] is lower in IC50: 0.1 to 1 µM for the first, < 0.1 µM for the second.

`CNC(=O)c1nn(-c2ccccc2)c(NC(=O)NCc2cc(Br)ccc2OC(F)(F)F)c1C` [Example 64, 5-(3-(5-bromo-2-(trifluoromethoxy)benzyl)ureido)-N,4-dimethyl-1-phenyl-1H-pyrazole-3-carboxamide] and `COCc1ccc(OC(F)(F)F)c(CNC(=O)Nc2c(C)c(OC[C@H]3COCCN3)nn2-c2ccccc2)c1` [Example 102, (R)-1-(5-(methoxymethyl)-2-(trifluoromethoxy)benzyl)-3-(4-methyl-3-(morpholin-3-ylmethoxy)-1-phenyl-1H-pyrazol-5-yl)urea] cannot be ordered by IC50: < 0.1 µM for the first, < 0.1 µM for the second.

`COCc1ccc(C2CCC2)c(CNC(=O)Nc2c(C)c(OCc3nnc(C)o3)nn2-c2ccccc2)c1` [Example 126, 1-(2-cyclobutyl-5-(methoxymethyl)benzyl)-3-(4-methyl-3-((5-methyl-1,3,4-oxadiazol-2-yl)methoxy)-1-phenyl-1H-pyrazol-5-yl)urea] and `COCc1ccc(C2CCC2)c(CNC(=O)Nc2c(C)c(OC[C@H](O)CO)nn2-c2ccccc2)c1` [Example 125, (R)-1-(2-cyclobutyl-5-(methoxymethyl)benzyl)-3-(3-(2,3-dihydroxypropoxy)-4-methyl-1-phenyl-1H-pyrazol-5-yl)urea] cannot be ordered by IC50: < 0.1 µM for the first, < 0.1 µM for the second.

`COCc1ccc(OCC(F)(F)F)c(CNC(=O)Nc2c(C)c(-c3cnc(OC)nc3)nn2-c2ccccc2)c1` [Example 69, 1-(5-(methoxymethyl)-2-(2,2,2-trifluoroethoxy)benzyl)-3-(3-(2-methoxypyrimidin-5-yl)-4-methyl-1-phenyl-1H-pyrazol-5-yl)urea] and `COCc1ccc(OC(F)F)c(CNC(=O)Nc2c(C)c(OCC3CCN(C)C3)nn2-c2ccccc2)c1` (stereo not drawn) [Example 107, 1-(2-(difluoromethoxy)-5-(methoxymethyl)benzyl)-3-(4-methyl-3-((1-methylpyrrolidin-3-yl)methoxy)-1-phenyl-1H-pyrazol-5-yl)urea] cannot be ordered by IC50: < 0.1 µM for the first, < 0.1 µM for the second.
